In publication PMC8343220, “The selectivity of α‐adrenoceptor agonists for the human α1A, α1B, and α1D‐adrenoceptors” (Pharmacology Research & Perspectives, 2021):

How the values were obtained:
[1] = target: T1, human α1D‐adrenoceptor (full length) (Homo sapiens, UniProt P25100); test: ^3H‐prazosin whole‐cell radioligand binding, CHO‐α1D cells; conditions: for Kd: CHO‐α1D cells; for Affinity selectivity ratio α1B vs α1D: higher affinity for α1D than α1B
T1 construct: human α1D‐adrenoceptor (full length) were used; expressed in transfected cells; host or cells: CHO-K1
T1 sequence (P25100 1-572): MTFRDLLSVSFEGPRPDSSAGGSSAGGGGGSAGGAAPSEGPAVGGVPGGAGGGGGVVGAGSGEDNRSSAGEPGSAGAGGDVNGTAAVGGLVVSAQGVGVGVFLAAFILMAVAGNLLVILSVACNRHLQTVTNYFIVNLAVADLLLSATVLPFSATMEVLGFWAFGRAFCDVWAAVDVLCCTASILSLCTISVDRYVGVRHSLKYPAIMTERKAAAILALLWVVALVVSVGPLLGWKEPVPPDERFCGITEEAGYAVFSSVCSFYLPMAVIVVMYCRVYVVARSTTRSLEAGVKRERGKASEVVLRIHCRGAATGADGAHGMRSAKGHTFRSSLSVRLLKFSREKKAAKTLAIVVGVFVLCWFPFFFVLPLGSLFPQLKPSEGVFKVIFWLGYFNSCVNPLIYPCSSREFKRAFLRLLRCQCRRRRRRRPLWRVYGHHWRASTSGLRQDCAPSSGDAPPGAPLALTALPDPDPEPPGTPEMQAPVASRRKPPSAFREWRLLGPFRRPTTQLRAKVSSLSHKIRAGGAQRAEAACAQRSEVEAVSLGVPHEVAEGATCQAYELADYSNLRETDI

[2] = target: T1, human α1D‐adrenoceptor (full length); test: ^3H‐cAMP accumulation, CHO‐α1D cells; format: cell-based; conditions: cAMP accumulation without forskolin
[3] = test system: parental CHO cell line without any transfected receptors; test: ERK1/2‐phosphorylation, parent CHO cells without transfected receptors; format: cell-based, Chinese hamster; conditions: for Emax at 100 µM: Cricetulus griseus, CHO, read-out: ERK1/2-phosphorylation % PDBu at 100μM
[4] = test system: parental CHO cell line without any transfected receptors; test: Forskolin‐stimulated cAMP accumulation, parent CHO cells without transfected receptors; format: cell-based, Chinese hamster; conditions: CHO cells without transfected receptors
human α1B‐adrenoceptor [5] = target: T2, human α1B‐adrenoceptor (Homo sapiens, UniProt P35368); test: ERK1/2‐phosphorylation (Surefire Alphascreen), CHO‐α1B cells; format: cell-based; conditions: for EC50 / ERK1/2‐phosphorylation % PDBu: for bi‐phasic responses the initial stimulatory part; for EC50: read-out: ERK1/2‐phosphorylation Log EC50 (converted); for ERK1/2‐phosphorylation % PDBu: maximal response as % PDBu response
T2 construct: expressed in transfected cells; host or cells: CHO-K1
T2 sequence (P35368 1-520): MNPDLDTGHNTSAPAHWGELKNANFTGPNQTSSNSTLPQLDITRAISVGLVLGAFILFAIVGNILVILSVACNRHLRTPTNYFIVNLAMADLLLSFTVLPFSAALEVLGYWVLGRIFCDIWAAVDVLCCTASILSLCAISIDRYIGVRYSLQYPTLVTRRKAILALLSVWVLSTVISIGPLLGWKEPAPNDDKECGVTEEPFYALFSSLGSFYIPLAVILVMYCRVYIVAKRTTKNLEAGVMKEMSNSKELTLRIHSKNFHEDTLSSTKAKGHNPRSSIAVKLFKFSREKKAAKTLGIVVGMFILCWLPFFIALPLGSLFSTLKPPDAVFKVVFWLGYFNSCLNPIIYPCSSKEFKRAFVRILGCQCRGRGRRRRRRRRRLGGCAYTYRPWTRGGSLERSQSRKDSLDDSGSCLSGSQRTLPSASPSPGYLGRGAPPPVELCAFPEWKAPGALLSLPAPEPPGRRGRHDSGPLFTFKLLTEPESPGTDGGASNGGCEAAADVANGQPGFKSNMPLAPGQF

human α1B‐adrenoceptor [6] = target: T2, human α1B‐adrenoceptor; test: Intracellular free calcium mobilization, CHO‐α1B cells; format: cell-based; conditions: for EC50: given as log EC50 (negative numbers), read-out: Intracellular calcium release Log EC50 (converted); for Log efficacy ratio KD /EC50: intrinsic efficacy ratio, KD from binding / EC50 calcium; for Intracellular calcium release % ionomycin: maximal response as % of 10 µM ionomycin response
human α1A‐adrenoceptor [7] = target: T3, human α1A‐adrenoceptor (Homo sapiens, UniProt P35348); test: ^3H‐prazosin whole‐cell radioligand binding, CHO‐α1A cells; conditions: for Kd: CHO‐α1A cells, given as log KD (negative), mean ± SEM; for Affinity selectivity ratio α1A vs α1B: higher affinity for α1A than α1B; for Affinity selectivity ratio α1A vs α1D: higher affinity for α1A than α1D
T3 construct: expressed in transfected cells; host or cells: CHO-K1
T3 sequence (P35348 1-466): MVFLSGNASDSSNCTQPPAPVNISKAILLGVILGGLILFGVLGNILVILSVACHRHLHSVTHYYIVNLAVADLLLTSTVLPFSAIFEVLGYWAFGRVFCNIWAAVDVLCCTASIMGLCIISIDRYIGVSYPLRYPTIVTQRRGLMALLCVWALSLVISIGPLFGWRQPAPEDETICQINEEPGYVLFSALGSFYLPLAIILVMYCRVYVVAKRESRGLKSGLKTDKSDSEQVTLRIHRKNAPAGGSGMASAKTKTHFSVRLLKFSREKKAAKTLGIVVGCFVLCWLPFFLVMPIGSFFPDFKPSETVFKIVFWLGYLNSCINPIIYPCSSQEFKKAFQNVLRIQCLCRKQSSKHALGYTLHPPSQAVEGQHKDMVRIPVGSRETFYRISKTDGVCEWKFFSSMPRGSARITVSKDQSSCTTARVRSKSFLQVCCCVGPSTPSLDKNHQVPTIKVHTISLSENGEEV

[8] = target: T1, human α1D‐adrenoceptor (full length); test: ^3H‐cAMP accumulation in the presence of 10 μM forskolin, CHO‐α1D cells; format: cell-based; conditions: CHO‐α1D cells; for cAMP (in presence of forskolin) Fold increase: fold increase of the forskolin response
[9] = target: T1, human α1D‐adrenoceptor (full length); test: Intracellular free calcium mobilization, CHO‐α1D cells; format: cell-based; conditions: CHO‐α1D cells; for Log efficacy ratio KD /EC50: intrinsic efficacy ratio, binding KD / calcium EC50; for Intracellular calcium release % ionomycin: maximal response as % of 10 µM ionomycin
human α1A‐adrenoceptor [10] = target: T3, human α1A‐adrenoceptor; test: Intracellular free calcium mobilization, CHO‐α1A cells; format: cell-based; conditions: CHO‐α1A cells; for Log efficacy ratio KD /EC50: binding KD and calcium EC50; for EC50: given as log EC50 (negative), read-out: Intracellular calcium release Log EC50 (converted); for Intracellular calcium release % ionomycin: maximal response as % of 10 µM ionomycin
human α1A‐adrenoceptor [11] = target: T3, human α1A‐adrenoceptor; test: ^3H‐cAMP accumulation in the presence of 10 μM forskolin, CHO‐α1A cells; format: cell-based; conditions: CHO‐α1A cells; for EC50: 10 μM forskolin, read-out: cAMP accumulation (in presence of forskolin) Log EC50 (converted); for cAMP accumulation (in presence of forskolin) Fold increase: fold increase of the forskolin response
human α1B‐adrenoceptor [12] = target: T2, human α1B‐adrenoceptor; test: ^3H‐cAMP accumulation in the presence of 10 μM forskolin, CHO‐α1B cells; format: cell-based; conditions: CHO‐α1B cells; for cAMP accumulation (in presence of forskolin) Fold increase: fold increase of the forskolin response; for EC50: in presence of forskolin, read-out: cAMP accumulation (in presence of forskolin) Log EC50 (converted)
human α1B‐adrenoceptor [13] = target: T2, human α1B‐adrenoceptor; test: ^3H‐cAMP accumulation, CHO‐α1B cells; format: cell-based; conditions: CHO‐α1B cells; for cAMP accumulation % forskolin: % forskolin maximum response; for EC50: read-out: cAMP accumulation Log EC50 (converted)
[14] = given as log KD (negative), mean ± SEM, 'early plateau' = specific binding not fully inhibited
[15] = in presence of forskolin, log values given negative
[16] = 3H‐prazosin binding Log KD, whole‐cell binding (from Table 1), log values given negative

| SMILES | Kd [1, 14] [nM] | Affinity selectivity ratio α1B vs α1D [1] [fold] | cAMP Log EC50 [2] | Emax at 100 µM [3] [%] | EC50 (human α1B‐adrenoceptor [5]; CHO‐α1B cells) [nM] | ERK1/2‐phosphorylation % PDBu (human α1B‐adrenoceptor [5]; CHO‐α1B cells) [%] | EC50 (human α1B‐adrenoceptor [6]; CHO‐α1B cells) [nM] | Log efficacy ratio KD /EC50 (human α1B‐adrenoceptor [6]; CHO‐α1B cells) | Intracellular calcium release % ionomycin (human α1B‐adrenoceptor [6]; CHO‐α1B cells) [%] | Kd (human α1A‐adrenoceptor [7]) [nM] | Affinity selectivity ratio α1A vs α1B (human α1A‐adrenoceptor [7]) [fold] | Affinity selectivity ratio α1A vs α1D (human α1A‐adrenoceptor [7]) [fold] | Log efficacy ratio KD /EC50 (human α1A‐adrenoceptor [10]) | EC50 (human α1A‐adrenoceptor [10]) [nM] | Intracellular calcium release % ionomycin (human α1A‐adrenoceptor [10]) [%] | EC50 (human α1A‐adrenoceptor [11]) [nM] | cAMP accumulation (in presence of forskolin) Fold increase (human α1A‐adrenoceptor [11]) [fold] | cAMP accumulation (in presence of forskolin) Fold increase (human α1B‐adrenoceptor [12]) [fold] | EC50 (human α1B‐adrenoceptor [12]) [nM] | cAMP accumulation % forskolin (human α1B‐adrenoceptor [13]) | also measured |
| --- | --- | --- | --- | --- | --- | --- | --- | --- | --- | --- | --- | --- | --- | --- | --- | --- | --- | --- | --- | --- | --- |
| c1ccc(C2CC2)c(OCC2=NCCN2)c1 [Cirazoline] | 2950 | 2.7 | No response | 33.4 ± 7.6 | 120 | 82.5 ± 8.6 | 8.91 | 2.95 | 53.3 ± 1.5 | 676 | 11.7 | 4.4 | 3.01 | 0.661 | 58.2 ± 2.0 | 10.7 | 2.38 ± 0.15 | 2.09 ± 0.13 | 39.8 | 11.4 ± 2.4% | cAMP accumulation (in presence of forskolin) % forskolin-stim cAMP at 100μM ([4]; response at 100μM only, EC50 not obtainable, % of forskolin-stimulated cAMP): 82.4 ± 2.8%; cAMP (in presence of forskolin) Fold increase [8]: No response; cAMP (in presence of forskolin) Log EC50 [8, 15]: No response; Log efficacy ratio KD /EC50 [9]: 1.37; Intracellular calcium release Log EC50 ([9]; log values given negative): −6.90 ± 0.09; Intracellular calcium release % ionomycin [9]: 17.3 ± 3.8%; EC50 (human α1B‐adrenoceptor [13]): 120 nM |
| CC(CCc1ccc(O)cc1)NCCc1ccc(O)c(O)c1 (stereo not shown) [Dobutamine] | 4370 | – | No response | – | – | – | – | – | – | 457 | 7.9 | 9.5 | 2.04 | 4.17 | 31.3 ± 3.6 | 661 | 1.98 ± 0.14 | 1.24 ± 0.04 | 2000 | No response | Kd [1, 16]: 4370 nM; ERK1/2-phosphorylation % PDBu at 10μM ([3]; CHO cells without transfected receptors, response at 10μM only, EC50 not obtainable, % of PDBu (10μM)): 16.4 ± 5.9%; cAMP accumulation (in presence of forskolin) Log EC50 [4]: No response; ERK1/2‐phosphorylation response in CHO‐α1B cells (human α1B‐adrenoceptor [5]): did not stimulate any measurable; ERK1/2‐phosphorylation % PDBu at 100 µM (human α1B‐adrenoceptor [5]; CHO‐α1B cells, response at 100 µM ligand (no EC50 given)): 56.3 ± 11.3%; Agonist (calcium) response in CHO‐α1B cells (human α1B‐adrenoceptor [6]): did not stimulate any measurable; Intracellular calcium release % Ionomycin at 100 µM (human α1B‐adrenoceptor [6]; CHO‐α1B cells, response at 100 µM ligand (no EC50 given), % of ionomycin response): 3.0 ± 1.1%; cAMP (in presence of forskolin) Fold increase [8]: 1.16 ± 0.06; EC50 [8, 15]: 309 nM; Log efficacy ratio KD /EC50 [9]: 2.26; EC50 ([9]; log values given negative, read-out: Intracellular calcium release Log EC50 (converted)): 24 nM; Intracellular calcium release % ionomycin [9]: 10.6 ± 1.8%; cAMP accumulation Log EC50 (human α1B‐adrenoceptor [13]): No response |
| Clc1ccc2nsnc2c1NC1=NCCN1 [Tizanidine] | – | 11.5 | – | 6.7 ± 3.3 | 288 | 57.7 ± 5.3 | 89.1 | 2.70 | 48.8 ± 1.8 | – | 12.9 | 1.1 | 1.98 | 36.3 | 53.5 ± 1.6 | 123 | 2.36 ± 0.10 | 2.01 ± 0.11 | 182 | 10.7 ± 1.5% | Kd [1, 16]: 3890 nM; Kd ([1]; Log KD α1D, ^3H‐prazosin whole cell binding, given as log KD (negative), mean ± SEM, 'early plateau' = specific binding not fully inhibited): 3890 nM; cAMP accumulation (in presence of forskolin) Log EC50 [4]: No response; Kd (human α1A‐adrenoceptor [7]; Log KD α1A, ^3H‐prazosin whole cell binding): 3470 nM; Intracellular calcium release % Ionomycin at 100 µM ([9]; response at 100 µM ligand (no EC50 given)): 2.5 ± 0.8%; EC50 (human α1B‐adrenoceptor [13]): 708 nM |
